We go through 25 compounds from patent publication US8796256B2 (Janssen Pharmaceutica NV, priority 2010, dated 2014).

As a reminder, the EC50 is the concentration giving half of the maximal effect.

This test concerns the target T1, ERR1 (also known as ERR-α or ERR-1) (Homo sapiens, UniProt P11474).
T1 sequence (P11474 193-421 limits assumed): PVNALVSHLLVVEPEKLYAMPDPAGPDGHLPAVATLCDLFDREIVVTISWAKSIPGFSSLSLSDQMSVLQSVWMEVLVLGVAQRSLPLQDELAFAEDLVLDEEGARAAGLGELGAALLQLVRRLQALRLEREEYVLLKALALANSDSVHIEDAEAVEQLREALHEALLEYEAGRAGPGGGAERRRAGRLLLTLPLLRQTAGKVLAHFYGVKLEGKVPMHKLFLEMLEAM
Description: TR-FRET assay (disruption of co-activator peptide binding to ERR1 LBD). It counts as biochemical. As to conditions: 6 nM 6His-ERR1LBD, 6 nM GST-SRC-2 peptide; average of 3 independent experiments. The essentials: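 Homogeneous TR-FRET measuring displacement of GST-hSRC2 co-activator peptide (6 nM) from His-tagged ERR1 LBD (6 nM), detected with α-GST Eu cryptate (30 nM) and α-His-XL665 (7.5 nM). Buffer 25 mM Tris pH 8, 2.5 mM Hepes, 20 mM KCl, 1 mM DTT, 0.05 mg/mL delipidated BSA; equilibration 4-18 h at 25° C. Hyperbolic dose-response fit, mean of 3 experiments.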
(TR-FRET usually uses a lanthanide donor and a delayed reading to cut background.)
For the compound `O=C1S/C(=C\c2ccc3c(cnn3Cc3ccc(Cl)cc3C(F)(F)F)c2)C(=O)N1N1CCN(CCO)CC1` [Compound 354, (5Z)-5-({1-[4-Chloro-2-(trifluoromethyl)benzyl]-1H-indazol-5-yl}methylidene)-3-[4-(2-hydroxyethyl)piperazin-1-yl]-1,3-thiazolidine-2,4-dione], it took 17 nM to reach a half-maximal effect (EC50). This counts as double-digit nanomolar.
For `O=C(O)CN1C(=O)S/C(=C\c2ccc3c(c2)c(F)nn3Cc2ccc(Cl)cc2C(F)(F)F)C1=O` [Compound 406, [(5Z)-5-({1-[4-Chloro-2-(trifluoromethyl)benzyl]-3-fluoro-1H-indazol-5-yl}methylidene)-2,4-dioxo-1,3-thiazolidin-3-yl]acetic acid] the value was 13 nM.
Compound `CN1C[C@H](O)C[C@H]1CN1C(=O)S/C(=C\c2ccc3c(cnn3Cc3ccc(Cl)cc3C(F)(F)F)c2)C1=O` [Compound 191, (5Z)-5-({1-[4-Chloro-2-(trifluoromethyl)benzyl]-1H-indazol-5-yl}methylidene)-3-{[(2S,4R)-4-hydroxy-1-methylpyrrolidin-2-yl]methyl}-1,3-thiazolidine-2,4-dione] registered an EC50 of 19 nM.
Compound `O=C1S/C(=C\c2ccc3c(cnn3Cc3ccc(Cl)cc3C(F)(F)F)c2)C(=O)N1CCN1CCNCC1` [Compound 163, (5Z)-5-({1-[4-Chloro-2-(trifluoromethyl)benzyl]-1H-indazol-5-yl}methylidene)-3-(2-piperazin-1-ylethyl)-1,3-thiazolidine-2,4-dione] registered a half-maximal effective concentration (EC50) of 38 nM.
`NC1(CN2C(=O)S/C(=C\c3ccc4c(cnn4Cc4ccc(Cl)cc4C(F)(F)F)c3)C2=O)CCOCC1` [Compound 308, (5Z)-3-[(4-Aminotetrahydro-2H-pyran-4-yl)methyl]-5-({1-[4-chloro-2-(trifluoromethyl)benzyl]-1H-indazol-5-yl}methylidene)-1,3-thiazolidine-2,4-dione] had a half-maximal effective concentration (EC50) of 5 nM.
For `CN1CC(N2C(=O)S/C(=C\c3ccc4c(cnn4Cc4ccc(Cl)cc4C(F)(F)F)c3)C2=O)C1` [Compound 133, (5Z)-5-({1-[4-Chloro-2-(trifluoromethyl)benzyl]-1H-indazol-5-yl}methylidine)-3-(1-methylazetidin-3-yl)-1,3-thiazolidine-2,4-dione] the value was 20 nM; for `O=C1S/C(=C\c2ccc3c(cnn3Cc3ccc(Cl)cc3C(F)(F)F)c2)C(=O)N1[C@@H]1CNC[C@@H]1F` (relative stereo) [Compound 322, (5Z)-5-({1-[4-Chloro-2-(trifluoromethyl)benzyl]-1H-indazol-5-yl}methylidene)-3-[cis-4-fluoropyrrolidin-3-yl]-1,3-thiazolidine-2,4-dione], 60 nM; for `CN1[C@@H]2CC[C@H]1C[C@H](N1C(=O)S/C(=C\c3ccc4c(cnn4Cc4ccc(C(F)(F)F)cc4C(F)(F)F)c3)C1=O)C2` [Compound 62, (5Z)-5-({1-[2,4-Bis(trifluoromethyl)benzyl]-1H-indazol-5-yl}methylidene)-3-[(3-exo)-8-methyl-8-azabicyclo[3.2.1]oct-3-yl]-1,3-thiazolidine-2,4-dione], 19 nM.
Compound `N[C@@H](CN1C(=O)S/C(=C\c2ccc3c(cnn3Cc3ccc(Cl)cc3C(F)(F)F)c2)C1=O)C1CCCCC1` [Compound 107, (5Z)-3-[(2R)-2-Amino-2-cyclohexylethyl]-5-({1-[4-chloro-2-(trifluoromethyl)benzyl]-1H-indazol-5-yl}methylidene)-1,3-thiazolidine-2,4-dione] displayed an EC50 of 264 nM. Compared with the last compound, the EC50 is about 14-fold higher.
For `N#CCN1CC[C@@H](N2C(=O)S/C(=C\c3ccc4c(cnn4Cc4ccc(Cl)cc4C(F)(F)F)c3)C2=O)[C@H](F)C1` (relative stereo) [Compound 338] the value was 24 nM; for `O=C(O)c1ccc(CN2C(=O)S/C(=C\c3ccc4c(cnn4Cc4ccc(Cl)cc4C(F)(F)F)c3)C2=O)cc1` [Compound 377, 4-{[(5Z)-5-({1-[4-Chloro-2-(trifluoromethyl)benzyl]-1H-indazol-5-yl}methylidene)-2,4-dioxo-1,3-thiazolidin-3-yl]methyl}benzoic acid], 67 nM; for `COC(=O)C(C1CCN(C(=O)OC(C)(C)C)CC1)N1C(=O)S/C(=C\c2ccc3c(cnn3Cc3ccc(Cl)cc3C(F)(F)F)c2)C1=O` (stereo not shown) [Compound 215, tert-Butyl 4-{1-[(5Z)-5-({1-[4-chloro-2-(trifluoromethyl)benzyl]-1H-indazol-5-yl}methylidene)-2,4-dioxo-1,3-thiazolidin-3-yl]-2-methoxy-2-oxoethyl}piperidine-1-carboxylate], 61 nM.
In turn, `CS(=O)(=O)NN1C(=O)S/C(=C\c2ccc3c(c2)c(Cl)nn3Cc2ccc(Cl)cc2C(F)(F)F)C1=O` [Compound 366, N-[(5Z)-5-({3-Chloro-1-[4-chloro-2-(trifluoromethyl)benzyl]-1H-indazol-5-yl}methylidene)-2,4-dioxo-1,3-thiazolidin-3-yl]methanesulfonamide] registered a concentration for a half-maximal effect (EC50) of 6 nM. Against the preceding compound, the EC50 is about 10-fold lower.
For `COc1ccc(Cn2ncc3cc(/C=C4\SC(=O)N(CCN5CCN(C)CC5)C4=O)ccc32)c(C(F)(F)F)c1` [Compound 12, (5Z)-5-[(1-{[4-(Methyloxy)-2-(trifluoromethyl)phenyl]methyl}-1H-indazol-5-yl)methylidene]-3-[2-(4-methylpiperazin-1-yl)ethyl]-1,3-thiazolidine-2,4-dione] the value was 72 nM; for `NC1(CN2C(=O)S/C(=C\c3ccc4c(cnn4Cc4ccc(C(F)(F)F)cc4C(F)(F)F)c3)C2=O)CCOCC1` [Compound 310, (5Z)-3-[(4-Aminotetrahydro-2H-pyran-4-yl)methyl]-5-({1-[2,4-bis(trifluoromethyl)benzyl]-1H-indazol-5-yl}methylidene)-1,3-thiazolidine-2,4-dione], 86 nM; for `Cn1cnc(CN2C(=O)S/C(=C\c3ccc4c(cnn4Cc4ccc(Cl)cc4C(F)(F)F)c3)C2=O)c1` [Compound 402, (5Z)-5-({1-[4-Chloro-2-(trifluoromethyl)benzyl]-1H-indazol-5-yl}methylidene)-3-[(1-methyl-1H-imidazol-4-yl)methyl]-1,3-thiazolidine-2,4-dione], 48 nM.
For `CN1C[C@H](F)C[C@H]1CN1C(=O)S/C(=C\c2ccc3c(cnn3Cc3ccc(Cl)cc3C(F)(F)F)c2)C1=O` [Compound 193, (5Z)-5-({1-[4-Chloro-2-(trifluoromethyl)benzyl]-1H-indazol-5-yl}methylidene)-3-{[(2S,4R)-4-fluoro-1-methylpyrrolidin-2-yl]methyl}-1,3-thiazolidine-2,4-dione] the value was 160 nM; for `O=C1CCNCC1N1C(=O)S/C(=C\c2ccc3c(cnn3Cc3ccc(Cl)cc3C(F)(F)F)c2)C1=O` (stereo not shown) [Compound 343, (5Z)-5-({1-[4-Chloro-2-(trifluoromethyl)benzyl]-1H-indazol-5-yl}methylidene)-3-(4-oxopiperidin-3-yl)-1,3-thiazolidine-2,4-dione], 27 nM; for `CN(C)CCN1C(=O)S/C(=C\c2ccc3c(ccn3Cc3ccc(F)cc3C(F)(F)F)c2)C1=O` [Compound 250, (5Z)-3-[2-(Dimethylamino)ethyl]-5-[(1-{[4-fluoro-2-(trifluoromethyl)phenyl]methyl}-1H-indol-5-yl)methylidene]-1,3-thiazolidine-2,4-dione], 200 nM.
Consider `CC(C)NCCN1C(=O)S/C(=C\c2ccc3c(cnn3Cc3ccc(Cl)cc3C(F)(F)F)c2)C1=O` [Compound 48, (5Z)-5-({1-[4-Chloro-2-(trifluoromethyl)benzyl]-1H-indazol-5-yl}methylidene)-3-{2-[(1-methylethyl)amino]ethyl}-1,3-thiazolidine-2,4-dione], for which the EC50 came out at 19 nM.
As to `O=C1S/C(=C\c2ccc3c(cnn3Cc3ccc(C(F)(F)F)cc3C(F)(F)F)c2)C(=O)N1C[C@H]1CN2CCC[C@H]2CO1` [Compound 208, (5Z)-5-({1-[2,4-Bis(trifluoromethyl)benzyl]-1H-indazol-5-yl}methylidene)-3-[(3R,8aS)-hexahydro-1H-pyrrolo[2,1-c][1,4]oxazin-3-ylmethyl]-1,3-thiazolidine-2,4-dione], it took 136 nM to reach a half-maximal effect (EC50).
For `CN1CCC(N2C(=O)S/C(=C\c3ccc4c(cnn4Cc4ccc(Cl)cc4C(F)(F)F)c3)C2=O)CC1` [Compound 135, (5Z)-5-({1-[4-Chloro-2-(trifluoromethyl)benzyl]-1H-indazol-5-yl}methylidene)-3-(1-methylpiperidin-4-yl)-1,3-thiazolidine-2,4-dione], the EC50 came out at 19 nM.
In turn, `N[C@@H]1CCCC[C@H]1N1C(=O)S/C(=C\c2ccc3c(cnn3Cc3ccc(Cl)cc3C(F)(F)F)c2)C1=O` [Compound 174, (5Z)-3-[(1R,2R)-2-Aminocyclohexyl]-5-({1-[4-chloro-2-(trifluoromethyl)benzyl]-1H-indazol-5-yl}methylidine)-1,3-thiazolidine-2,4-dione] registered a 50% effective concentration (EC50) of 150 nM. Compared with the last compound, the EC50 is about 7.9-fold higher.
For `COC(=O)C1(N2C(=O)S/C(=C\c3ccc4c(cnn4Cc4ccc(Cl)cc4C(F)(F)F)c3)C2=O)CCOCC1` [Compound 226, Methyl 4-[(5Z)-5-({1-[4-chloro-2-(trifluoromethyl)benzyl]-1H-indazol-5-yl}methylidene)-2,4-dioxo-1,3-thiazolidin-3-yl]tetrahydro-2H-pyran-4-carboxylate] the value was 30 nM; for `O=C1S/C(=C\c2ccc3c(cnn3Cc3ccc(Cl)cc3C(F)(F)F)c2)C(=O)N1CCc1cccnc1` [Compound 109, (5Z)-5-({1-[4-Chloro-2-(trifluoromethyl)benzyl]-1H-indazol-5-yl}methylidene)-3-(2-pyridin-3-ylethyl)-1,3-thiazolidine-2,4-dione], 152 nM.
